Measurements as given in patent publication EP0700399B1, “36-DERIVATIVES OF RIFAMYCINS AND THEIR USE AS ANTIMICROBIAL AGENTS” (GRUPPO LEPETIT S.P.A., priority 1993, dated 1994).
Read-outs that look alike come from different tables or passages of the source.

How the values were obtained:
Staphylococcus aureus = experiment: MIC by broth microdilution; format: cell-based; settings: internal code L165; for MIC: Staphylococcus aureus, read-out: MIC of the compounds
Staph. aureus rifa-r^(1) = experiment: MIC by broth microdilution; format: cell-based; settings: for MIC: Staphylococcus aureus, read-out: MIC of the compounds
Staph. aureus rifa-r^(2) = experiment: MIC by broth microdilution; format: cell-based; settings: for MIC: Staphylococcus aureus, read-out: MIC of the compounds
[1] = test system: Staph. epidermidis ATCC 12228; experiment: MIC by broth microdilution; format: cell-based; settings: internal code L147; for MIC: Staphylococcus epidermidis, ATCC12228, read-out: MIC of the compounds
[2] = test system: Staph. haemolyticus rifa-r^(2); experiment: MIC by broth microdilution; format: cell-based; settings: for MIC: Staphylococcus haemolyticus, read-out: MIC of the compounds
Streptococcus pyogenes = experiment: MIC by broth microdilution; format: cell-based; settings: internal code L49; for MIC: Streptococcus pyogenes, read-out: MIC of the compounds
Strept. pneumoniae = experiment: MIC by broth microdilution; format: cell-based; settings: internal code L44; for MIC: Streptococcus pneumoniae, read-out: MIC of the compounds
[3] = test system: Enterococc. faecalis ATCC 7080; experiment: MIC by broth microdilution; format: cell-based, Enterococcus faecalis; settings: internal code L149; for MIC: Enterococcus faecalis, ATCC7080, read-out: MIC of the compounds
[4] = test system: Propionibact. acnes ATCC 6919; experiment: MIC by broth microdilution; format: cell-based, Propionibacterium acnes; settings: Cutibacterium acnes, ATCC6919; internal code L1014; anaerobic, 48 hours; read-out: MIC of the compounds
Clostridium perfringens = experiment: microbe, parasite or virus in culture; format: cell-based; settings: read-out: MIC of the compounds
[5] = test system: Bacteroides fragilis ATCC 25285; experiment: MIC by broth microdilution; format: cell-based; settings: Bacteroides fragilis, ATCC25285; internal code L1011; anaerobic, 48 hours; read-out: MIC of the compounds
Neisseria gonorrhoeae = experiment: MIC by broth microdilution; format: cell-based; settings: internal code L997, 5% carbon dioxide, 48 hours; for MIC: Neisseria gonorrhoeae, read-out: MIC of the compounds
[6] = test system: Moraxella catarr. ATCC 8178; experiment: MIC by broth microdilution; format: cell-based, Moraxella catharralis; settings: ATCC8178, internal code L76, read-out: MIC of the compounds
[7] = test system: Haemoph. influenzae ATCC 19418; experiment: MIC by broth microdilution; format: cell-based, Haemophilus influenzae; settings: internal code L970, 5% carbon dioxide, 48 hours; for MIC: Haemophilus influenzae, ATCC19418, read-out: MIC of the compounds
Escherichia coli = experiment: MIC by broth microdilution; format: cell-based; settings: internal code L47; for MIC: Escherichia coli, read-out: MIC of the compounds
[8] = test system: Esch. coli K12 hyperpermeable; experiment: MIC by broth microdilution; format: cell-based, Escherichia coli; settings: Escherichia coli, read-out: MIC of the compounds
[9] = test system: Esch. coli K12 rifa-r^(1); experiment: MIC by broth microdilution; format: cell-based, Escherichia coli; settings: Escherichia coli, read-out: MIC of the compounds
[10] = test system: Proteus vulgaris ATCC 881; experiment: MIC by broth microdilution; format: cell-based; settings: internal code L79; for MIC: Proteus vulgaris, ATCC881, read-out: MIC of the compounds
Klebsiella pneumoniae = experiment: MIC by broth microdilution; format: cell-based; settings: internal code L142, read-out: MIC of the compounds
[11] = test system: Pseudomonas aerug. ATCC10145; experiment: MIC by broth microdilution; format: cell-based, Pseudomonas aeruginosa; settings: internal code L4; for MIC: Pseudomonas, ATCC10145, read-out: MIC of the compounds
Staph. aureus Smith = experiment: MIC by broth microdilution; format: cell-based; settings: internal code L819
[12] = test system: Bacteroides fragilis ATCC 23745; experiment: MIC by broth microdilution; format: cell-based; settings: internal code L1010, anaerobic, 48 hours
[13] = test system: Staphylococcus aureus Smith (Int. code L 819); experiment: Experimental septicemia in mice; format: in vivo; settings: treated once immediately after infection, survival on the 7th day; for ED50: Staphylococcus aureus, 168 h
Description: Some compounds of the invention were also tested in experimental septicemia in mice infected with Staphylococcus aureus Smith (Int. code L 819). For this purpose, groups of five mice were infected intraperitoneally with about 1 x 10^6 CFU of S. aureus Smith suspended in 0.5 ml of Difco bacteriological mucin. Untreated animals died within 48 hours. The other animals were treated once immediately after infection. On the 7th day the value of ED50 (expressed in mg/kg) was calculated by the method of Spearman-[…]., Statistical method in biological assay, page 254, C. Griffin Ltd., London, 1952), on the basis of the percentage of animals surviving at each dose.

CO[C@H]1/C=C/O[C@@]2(C)Oc3c(C)c(O)c4c(c3C2=O)C(=O)C=C(NC(=O)/C(C)=C\C=C\[C@H](C)[C@H](O)[C@@H](C)[C@@H](O)[C@@H](C)[C@H](OC(=O)CBr)[C@@H]1C)C4=O [Compound C1, 36-Bromorifamycin S]
MIC (Staphylococcus aureus): 0.004 µg/mL
MIC (Staph. aureus rifa-r^(1)): 0.25 µg/mL
MIC (Staph. aureus rifa-r^(2)): 2 µg/mL
MIC [1]: 0.004 µg/mL
MIC [2]: 32 µg/mL
MIC (Streptococcus pyogenes): 0.03 µg/mL
MIC (Strept. pneumoniae): 0.03 µg/mL
MIC [3]: 1 µg/mL
MIC [4]: 0.016 µg/mL
MIC (Clostridium perfringens): 0.0003 µg/mL
MIC [5]: 1 µg/mL
MIC (Neisseria gonorrhoeae): 1 µg/mL
MIC [6]: 0.008 µg/mL
MIC [7]: 1 µg/mL
MIC (Escherichia coli): 32 µg/mL
MIC [8]: 0.25 µg/mL
MIC [9]: > 128 µg/mL
MIC [10]: 16 µg/mL
MIC (Klebsiella pneumoniae): 128 µg/mL
MIC [11]: 32 µg/mL

CCn1cc(C(=O)OCC(=O)O[C@H]2[C@H](C)[C@H](O)[C@H](C)[C@@H](O)[C@@H](C)/C=C/C=C(/C)C(=O)NC3=C(N4CCOCC4)C(=O)c4c(c(O)c(C)c5c4C(=O)[C@@](C)(O/C=C/[C@H](OC)[C@H]2C)O5)C3=O)c(=O)c2cc(F)c(N3CCN(C)CC3)cc21 [Compound C24, 36-{[1-Ethyl-6-fluoro-1,4-dihydro-7-(4-methyl-1-piperazinyl)-4-oxo-3-quinolinyl]carbonyloxy}-3-(4-morpholinyl) rifamycin S]
MIC (Staphylococcus aureus): 0.06 µg/mL
MIC (Staph. aureus rifa-r^(1)): 0.06 µg/mL
MIC (Staph. aureus rifa-r^(2)): 0.13 µg/mL
MIC (Staph. aureus Smith; Staphylococcus aureus, read-out: MIC of the compounds): 0.06 µg/mL
MIC [1]: 0.008 µg/mL
MIC [2]: 0.13 µg/mL
MIC (Streptococcus pyogenes): 0.06 µg/mL
MIC (Strept. pneumoniae): 0.008 µg/mL
MIC [3]: 0.13 µg/mL
MIC [4]: 0.06 µg/mL
MIC ([12]; Bacteroides fragilis, ATCC23745, read-out: MIC of the compounds): 0.13 µg/mL
MIC (Neisseria gonorrhoeae): 0.06 µg/mL
MIC [7]: 0.13 µg/mL
MIC (Escherichia coli): 16 µg/mL
MIC [10]: 16 µg/mL
MIC [11]: 16 µg/mL
ED50 ([13]; intravenous, read-out: ED50 IV route): 3.8 mg/kg
ED50 ([13]; sc, subcutaneous, read-out: ED50 SC route): > 50 mg/kg

36-[(1-Ethyl-6-fluoro-1,4-dihydro-7-(4-methyl-1-piperazinyl)-4-oxo-3-quinolinyl)carbonyloxy]-2'-(diethylamino)rifamycin P [Compound C22]
MIC of the compounds (Staphylococcus aureus): 0.06 µg/mL
MIC of the compounds (Staph. aureus rifa-r^(1); internal code L721, rifampicin resistant strain, moderately resistant): 0.13 µg/mL
MIC of the compounds (Staph. aureus rifa-r^(2); internal code L1282, rifampicin resistant strain, highly resistant): 1 µg/mL
MIC of the compounds (Staph. aureus Smith): 0.06 µg/mL
MIC of the compounds [1]: 0.06 µg/mL
MIC of the compounds ([2]; internal code L602, rifampicin resistant strain, highly resistant): 0.5 µg/mL
MIC of the compounds (Streptococcus pyogenes): 0.06 µg/mL
MIC of the compounds (Strept. pneumoniae): 0.06 µg/mL
MIC of the compounds [3]: 2 µg/mL
MIC of the compounds [12]: 0.13 µg/mL
MIC of the compounds (Neisseria gonorrhoeae): 0.25 µg/mL
MIC of the compounds [7]: 0.5 µg/mL
MIC of the compounds (Escherichia coli): ≥128 µg/mL
MIC of the compounds [10]: 64 µg/mL
MIC of the compounds [11]: 32 µg/mL
ED50 IV route ([13]; intravenous): 0.7 mg/kg
ED50 SC route ([13]; subcutaneous): 5.3 mg/kg

CO[C@H]1/C=C/O[C@@]2(C)Oc3c(C)c(O)c4c(c3C2=O)C(=O)C=C(NC(=O)/C(C)=C\C=C\[C@H](C)[C@H](O)[C@@H](C)[C@@H](O)[C@@H](C)[C@H](OC(=O)COC(C)=O)[C@@H]1C)C4=O [Compound C13, 36-Acetyloxyrifamycin S]
MIC (Staphylococcus aureus): 0.002 µg/mL
MIC (Staph. aureus rifa-r^(1)): 0.25 µg/mL
MIC (Staph. aureus rifa-r^(2)): 4 µg/mL
MIC [1]: 0.001 µg/mL
MIC [2]: 32 µg/mL
MIC (Streptococcus pyogenes): 0.008 µg/mL
MIC (Strept. pneumoniae): 0.008 µg/mL
MIC [3]: 0.13 µg/mL
MIC [4]: 0.03 µg/mL
MIC (Clostridium perfringens): 0.0005 µg/mL
MIC [5]: 0.5 µg/mL
MIC (Neisseria gonorrhoeae): 0.25 µg/mL
MIC [6]: 0.004 µg/mL
MIC [7]: 0.5 µg/mL
MIC (Escherichia coli): 16 µg/mL
MIC [8]: ≤ 0.13 µg/mL
MIC [9]: > 128 µg/mL
MIC [10]: 8 µg/mL
MIC (Klebsiella pneumoniae): 64 µg/mL
MIC [11]: 32 µg/mL

CO[C@H]1/C=C/O[C@@]2(C)Oc3c(C)c(O)c4c(c3C2=O)C(=O)C(N2CCOCC2)=C(NC(=O)/C(C)=C\C=C\[C@H](C)[C@H](O)[C@@H](C)[C@@H](O)[C@@H](C)[C@H](OC(=O)CO)[C@@H]1C)C4=O [Compound C15, 36-Hydroxy-3-(4-morpholinyl)rifamycin S]
MIC (Staphylococcus aureus): 0.002 µg/mL
MIC (Staph. aureus rifa-r^(1)): 2 µg/mL
MIC (Staph. aureus rifa-r^(2)): 4 µg/mL
MIC [1]: 0.001 µg/mL
MIC [2]: 4 µg/mL
MIC (Streptococcus pyogenes): 0.03 µg/mL
MIC (Strept. pneumoniae): 0.016 µg/mL
MIC [3]: 0.5 µg/mL
MIC [4]: 0.016 µg/mL
MIC (Clostridium perfringens): 0.001 µg/mL
MIC [5]: 0.03 µg/mL
MIC (Neisseria gonorrhoeae): 0.03 µg/mL
MIC [6]: 0.002 µg/mL
MIC [7]: 0.06 µg/mL
MIC (Escherichia coli): 8 µg/mL
MIC [8]: ≤ 0.13 µg/mL
MIC [9]: > 128 µg/mL
MIC [10]: 8 µg/mL
MIC (Klebsiella pneumoniae): 8 µg/mL
MIC [11]: 16 µg/mL

CO[C@H]1/C=C/O[C@@]2(C)Oc3c(C)c(O)c4c(c3C2=O)C(=O)C(N2CCOCC2)=C(NC(=O)/C(C)=C\C=C\[C@H](C)[C@H](O)[C@@H](C)[C@@H](O)[C@@H](C)[C@H](OC(=O)CBr)[C@@H]1C)C4=O [Compound C8, 36-Bromo-3-(4-morpholinyl)rifamycin S]
MIC (Staphylococcus aureus): 0.002 µg/mL
MIC (Staph. aureus rifa-r^(1)): 0.5 µg/mL
MIC (Staph. aureus rifa-r^(2)): 0.5 µg/mL
MIC [1]: 0.001 µg/mL
MIC [2]: 16 µg/mL
MIC (Streptococcus pyogenes): 0.06 µg/mL
MIC (Strept. pneumoniae): 0.03 µg/mL
MIC [3]: 0.5 µg/mL
MIC [4]: 0.004 µg/mL
MIC (Clostridium perfringens): 0.001 µg/mL
MIC [5]: 0.03 µg/mL
MIC (Neisseria gonorrhoeae): 0.03 µg/mL
MIC [6]: 0.002 µg/mL
MIC [7]: 0.13 µg/mL
MIC (Escherichia coli): 8 µg/mL
MIC [8]: ≤ 0.13 µg/mL
MIC [9]: > 128 µg/mL
MIC [10]: 8 µg/mL
MIC (Klebsiella pneumoniae): 16 µg/mL
MIC [11]: 16 µg/mL

CO[C@H]1/C=C/O[C@@]2(C)Oc3c(C)c(O)c4c(c3C2=O)C(=O)C=C(NC(=O)/C(C)=C\C=C\[C@H](C)[C@H](O)[C@@H](C)[C@@H](O)[C@@H](C)[C@H](OC(=O)CCl)[C@@H]1C)C4=O [Compound C3, 36-Chlororifamycin S]
MIC (Staphylococcus aureus): 0.004 µg/mL
MIC (Staph. aureus rifa-r^(1)): 1 µg/mL
MIC (Staph. aureus rifa-r^(2)): 16 µg/mL
MIC [1]: 0.008 µg/mL
MIC [2]: 64 µg/mL
MIC (Streptococcus pyogenes): 0.016 µg/mL
MIC (Strept. pneumoniae): 0.03 µg/mL
MIC [3]: 0.25 µg/mL
MIC [4]: 0.03 µg/mL
MIC (Clostridium perfringens): 0.0003 µg/mL
MIC [5]: 0.13 µg/mL
MIC (Neisseria gonorrhoeae): 0.13 µg/mL
MIC [6]: 0.008 µg/mL
MIC [7]: 1 µg/mL
MIC (Escherichia coli): 32 µg/mL
MIC [8]: 0.25 µg/mL
MIC [9]: > 128 µg/mL
MIC [10]: 8 µg/mL
MIC (Klebsiella pneumoniae): 64 µg/mL
MIC [11]: 32 µg/mL
